Source: patent US20230357099A1, “PYRAZOLO [3,4-B] PYRIDINE-4-CARBOXAMIDE NITRIFICATION INHIBITOR” (EUROCHEM ANTWERPTEN, priority 2020, published 2023)
Like-named read-outs stand apart in the source and are kept apart here. Each block holds one molecule with its values, some of them ahead of it.

Assays:
agricultural soils = experiment: In soil nitrification inhibition assay; settings: for inhibition at 50 µM / inhibition at 100 µM: soil; for inhibition at 50 µM: 50 µM of each compound
Experimental: Top layer (0 to 10 cm) soil samples were collected from different fields in Belgium (Merelbeke, Sint-Laureins and Moorslede). Vegetation was removed and samples were taken from different plots. All soil samples were mixed and sieved (mesh size 2.8 mm) to filter large debris and homogenize soil. The soil was stored at 5° C. in plastic containers covered with Saran foil to prevent changes in microbial community composition and to maintain the original soil water content.
Soil water content was determined by drying 20 g soil for ≥ 48 h in a 60° C. oven and measuring weight before and after drying. Based on the soil water content (± 20%), compound solutions were prepared so that addition of 200 µl compound and 200 µl NH4Cl solution would result in a final compound concentration of 50 µM (unless otherwise stated) and a final NH4+ concentration of 10 mM. Per treatment, 5 small pots were filled with 20 g soil. Next, the soil was treated first with the respective compound solution and then with the NH4Cl solution. Per tray, positive (50 µM DMP) and negative controls (DMSO) were included. […] Demineralized water was added to the soil every 2 to 3 days to a soil weight of 20 g. In the end, each sample of 20 g soil was dissolved in 100 ml 1 M KCI and shaken for 1 hour, followed by filtration through Whatmann® paper. The filtrate was used to measure pH, NH4+ and NO3— concentrations. The nitrification percentage was calculated as the ratio of the consumed ammonium in treated soil versus the consumed ammonium in non-treated soil; the nitrification inhibition percentage was calculated as ‘100% - the nitrification percentage’.

[1] = tested on: ammonia oxidizing archaea; experiment: Abundance of ammonia oxidizing archaea in DMP-treated soil
[2] = tested on: agricultural soils (Moorslede and Sint-Laureins); experiment: Greenhouse gas measurements from fertilized soil
Experimental: Two agricultural soils coming from fields in Moorslede and Sint-Laureins were used. Screw top vials were filled with 10 g soil. Vials were sealed with Parafilm and preincubated at 21° C. in the dark for 5 days. After pre-incubation, vials were ventilated using a fan. Then 100 µL of a 1 mM compound solution (10 % DMSO) was added, immediately followed by the addition of 100 µL 200 mM NH4Cl. Vials were closed gastight and 5 mL synthetic air was added to the headspace using a plastic syringe, followed by the transfer of 5 mL headspace to an evacuated 3 mL exetainer. Vials were incubated at 21° C. in the dark and background NO concentration was noted. At each sampling timepoint, 5 mL synthetic air was added again to the headspace using a plastic syringe, again followed by the transfer of 5 mL headspace to an evacuated 3 mL exetainer. Vials were ventilated and closed again, and new gas samples were transferred to exetainers like before. N2O in the exetainers were measured via gas chromatography (GC-14 B (Schimadzu) equipped with Haysep Q columns (same spec) and an ECD detector, He at c.a. 20 mL min, 70° C.). The CO2 and CH4 concentration in the 3 mL exetainer vials was measured using a GC (Trace-GC, Interscience) equipped with Haysep Q columns (80-100, ⅛″ divided in 2 part 0.25 and 2.0 m connected with a 6 port valve to allow backflush of water vapor) and a FID (CH4) and TCD (CO2). Carrier gas was He c.a. 20 mL/min kept at 90° C. NO concentration was measured directly by connecting a chemiluminescence NO detector (CLD 77 AM, eco physics) directly to the headspace using a needle.

Aliivibrio fischeri = assay type: cell-based
Experimental: Furthermore, a representative subset was tested on Aliivibrio fischeri growth (formerly known as Vibrio fischeri), a bacterium used in the Microtox assay to test toxic substances in different substrates such as (drinking) water, air, soils and sediments.
Two of these variants were also tested on Aliivibrio fischeri to test possible toxicity.

[3] = tested on: ABIL (ammonia-binding liquid inoculum), nitrifying microbial enrichment containing both AOA and AOB; experiment: Nitrification inhibition assay on ABIL (ammonium consumption); assay type: cell-based; settings: 10 µM compound
[4] = tested on: Nitrososphaera viennensis; experiment: Nitrification inhibition assay on Nitrososphaera viennensis (nitrite, Griess); assay type: cell-based, Nitrososphaera viennensis EN76T; settings: for activity at 2.5 µM: Nitrososphaera viennensis, 2.5 µM compound, structural variants outside formula (I), read-out: Relative nitrification (%) by Nitrososphaera viennensis treated with 2.5 µM compound
Method in brief: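 N. viennensis EN76T cultures in FWM (pH 7.5, NH4Cl-supplemented), 5× concentrated, treated with compounds at 2.5 µM final (0.25% DMSO) and incubated 24 h at 42 °C. Nitrite measured by Griess absorbance at 540 nm against a standard curve. Relative nitrification normalized between DMSO (no compound) and 100 µM PTIO controls.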

[5] = 168 h, Soil 2, 7 days, 100 µM of each compound, 6 inhibitors alone and combined with Example 2
[6] = Soil 2, 7 days, 100 µM of each compound, 6 inhibitors alone and combined with Example 2
[7] = structural variants outside formula (I), read-out: Relative nitrification (%) by ABIL treated with 10 µM compound

Compound: Cc1cn[nH]c1C [DMP, 3,4-dimethylpyrazole]
inhibition at 50 µM (agricultural soils; 72 h, Soil 2, 3 days): 68% | inhibition at 50 µM (agricultural soils; 72 h, Soil 3, 3 days): 52% | inhibition at 50 µM (agricultural soils; 168 h, Soil 1, 7 days): 88% | inhibition at 100 µM (agricultural soils; 168 h, Soil 1, 7 days, 100 µM): 84% | inhibition at 50 µM (agricultural soils; 168 h, Soil 2, 7 days): 14% | inhibition at 100 µM (agricultural soils; 168 h, Soil 2, 7 days, 100 µM (Table 2)): 14% | inhibition at 100 µM (agricultural soils; [5]): 54% | inhibition at 50 µM (agricultural soils; 168 h, Soil 3, 7 days): 0% | inhibition at 100 µM (agricultural soils; 168 h, Soil 3, 7 days, 100 µM): 0% | effect on the presence (abundance) of ammonia oxidizing archaea [1]: no inhibiting effect on the presence of archaea | Cumulative emission at indicated timepoint [ppb], N2O, 4 h ([2]; Moorslede soil, N2O): 0 ppb | Cumulative emission at indicated timepoint [ppb], N2O, 24 h ([2]; Moorslede soil, N2O): 0 ppb | Cumulative emission at indicated timepoint [ppb], N2O, 48 h ([2]; Moorslede soil, N2O): 0 ppb | Cumulative emission at indicated timepoint [ppb], N2O, 72 h ([2]; Moorslede soil, N2O): 0 ppb | Cumulative emission at indicated timepoint [ppb], N2O, 99 h ([2]; Moorslede soil, N2O): 0 ppb | Cumulative emission at indicated timepoint [ppb], NO, 4 h ([2]; Moorslede soil, NO): 48 ppb | Cumulative emission at indicated timepoint [ppb], NO, 24 h ([2]; Moorslede soil, NO): 49 ppb | Cumulative emission at indicated timepoint [ppb], NO, 48 h ([2]; Moorslede soil, NO): 47 ppb | Cumulative emission at indicated timepoint [ppb], NO, 72 h ([2]; Moorslede soil, NO): 64 ppb | Cumulative emission at indicated timepoint [ppb], NO, 99 h ([2]; Moorslede soil, NO): 64 ppb | Cumulative emission at indicated timepoint [ppb], N2O, 4 h ([2]; Sint-Laureins soil, N2O): 0 ppb | Cumulative emission at indicated timepoint [ppb], N2O, 24 h ([2]; Sint-Laureins soil, N2O): 0 ppb | Cumulative emission at indicated timepoint [ppb], N2O, 48 h ([2]; Sint-Laureins soil, N2O): 0 ppb | Cumulative emission at indicated timepoint [ppb], N2O, 72 h ([2]; Sint-Laureins soil, N2O): 0 ppb | Cumulative emission at indicated timepoint [ppb], N2O, 99 h ([2]; Sint-Laureins soil, N2O): 0 ppb | Cumulative emission at 215 h [ppb], N2O ([2]; Sint-Laureins soil, N2O, 215 h): 47 ppb | Cumulative emission at indicated timepoint [ppb], NO, 4 h ([2]; Sint-Laureins soil, NO): 26 ppb | Cumulative emission at indicated timepoint [ppb], NO, 24 h ([2]; Sint-Laureins soil, NO): 59 ppb | Cumulative emission at indicated timepoint [ppb], NO, 48 h ([2]; Sint-Laureins soil, NO): 98 ppb | Cumulative emission at indicated timepoint [ppb], NO, 72 h ([2]; Sint-Laureins soil, NO): 162 ppb | Cumulative emission at indicated timepoint [ppb], NO, 99 h ([2]; Sint-Laureins soil, NO): 187 ppb | Cumulative emission at 215 h [ppb], NO ([2]; Sint-Laureins soil, NO, 215 h): 243 ppb

Growth of Aliivibrio fischeri, relative to control without compound (%) (Aliivibrio fischeri): 40%
Compound: CC(C)n1ncc2cc(CNc3ccc4[nH]ncc4c3)cnc21 [drawing 170]

Compound: c1nc[nH]n1 [1,2,4-triazole, 1H-1,2,4-triazole]
Nitrification inhibition (%) (agricultural soils; [6]): 32%

Compound: N#CN=C(N)N [DCD, dicyandiamide]
Nitrification inhibition (%) (agricultural soils; [6]): 0%

Compound: Cc1cn(C(CC(=O)O)C(=O)O)nc1C (stereo not drawn) [DMPSA, 2-(3,4-dimethyl-pyrazol-1-yl)-succinic acid]
inhibition at 50 µM (agricultural soils; 72 h, Soil 2, 3 days): 47% | inhibition at 100 µM (agricultural soils; [5]): 44%

Compound: CCc1cccc(NC(=O)CCc2c(C)nc3c(c(C)nn3C)c2C)c1 [Example 34]
activity at 10 µM [3, 7]: 96% | activity at 2.5 µM [4]: 99%

Compound: COCCNC(=O)c1cc(-c2ccc(C)cc2)nc2c1cnn2C(C)C [Example 1]
activity at 10 µM ([3]; 24 h, 24 h, 0% = as strong as 100 µM PTIO, 100% = no inhibition, read-out: ABIL - relative nitrification (%) at 10 µM): -9% | N. viennensis - relative nitrification (%) at 0.5 µM ([4]; 0.5 µM compound, 0% = as strong as 100 µM PTIO, 100% = no inhibition): 52% | N. viennensis - relative nitrification (%) at 5 µM ([4]; 5 µM compound, 0% = as strong as 100 µM PTIO, 100% = no inhibition): 0% | N. viennensis - relative nitrification (%) at 25 µM ([4]; 25 µM compound, 0% = as strong as 100 µM PTIO, 100% = no inhibition): 0%

Compound: COC1(C(=O)Nc2ccc(-n3ncc4ccccc43)cc2)CCOC1 (stereo not drawn) [Example 134]
activity at 10 µM [3, 7]: 100% | activity at 2.5 µM [4]: 100%

Compound: CC(C)n1ncc2cc(CNc3ccc4[nH]ncc4c3)ccc21 [Example 30]
activity at 10 µM [3, 7]: 92% | activity at 2.5 µM [4]: 100%

Compound: Cc1nc2c(c(C)nn2C)c(C)c1CCC(=O)N1CCOCC1C (stereo not drawn) [Example 75]
activity at 10 µM [3, 7]: 100% | activity at 2.5 µM [4]: 100%

Compound: CCN(Cc1nc2ccccc2c(=O)[nH]1)C(=O)CCc1c(C)nc2c(cnn2C(C)C)c1C [Example 92]
activity at 10 µM [3, 7]: 100% | activity at 2.5 µM [4]: 100%

Compound: CCC(C)(CC)NC(=O)COc1nn(C)c2nc(C)cc(C)c12 [Example 64]
activity at 10 µM [3, 7]: 100% | activity at 2.5 µM [4]: 100%

Compound: O=S(=O)(Nc1cccc2[nH]ncc12)N1CCCCC1 [Example 113]
activity at 10 µM [3, 7]: 98% | activity at 2.5 µM [4]: 100%

Compound: COC(=O)c1n[nH]c2ccc(NS(=O)(=O)c3ccc(Cl)c(Cl)c3)cc12 [Example 101]
activity at 10 µM [3, 7]: 90% | activity at 2.5 µM [4]: 94%
